# Measured values taken from patent publication US20190142810A1, “MITOCHONDRIAL INHIBITORS FOR THE TREATMENT OF PROLIFERATION DISORDERS” (Basilea Pharmaceutica International AG, priority 2016, published 2019).
# Experiments:
# [1] = system: HeLa galactose cells; test: Cell growth and proliferation assay of HeLa galactose cells (crystal violet); format: cell-based; conditions: 72 hours incubation, crystal violet staining, absorbance at 590 nm
# Procedure: The cervical tumor cell line HeLa (ATCC, CCL-2) was cultivated in DMEM medium (Invitrogen cat. no. 11971, 4.5 g/L high glucose) containing 10% fetal calf serum (Sigma cat. no. F9665) and 1% Penicillin/Streptomycin (Sigma cat. no. P0781) at 37° C. in 5% CO2. HeLa galactose cells (i.e. HeLa cells that grow in high concentrations of galactose) were generated from HeLa glucose cells (i.e. HeLa cells that grow in high concentrations of glucose) by gradually changing the amount of glucose in the media to zero glucose in the presence of galactose as a sugar source (50% galactose/50% glucose media for one week, then 75% galactose/25% glucose media for one week, to 100% galactose media in the third week). Galactose media (Invitrogen cat. no. 11966) was supplemented with 10 mM galactose (Sigma cat. no. G5388).
# Cell Growth and Proliferation Assay of HeLa Galactose and Glucose Cells
# HeLa galactose cells and HeLa glucose cells were seeded in 96 well plates (TPP, cat. no 92696) at 2000 and 1500 cells/well, respectively, in 100 μL of complete medium. After overnight incubation the cells were incubated for 72 hours in complete medium containing 0.001% DMSO or compounds (final concentration of DMSO 0.001%). After the medium was removed, cells were fixed and stained by adding 50 μL crystal violet staining (0.2% crystal violet (Sigma-Aldrich cat. no. C0775) in 50% methanol) per well. The plates were incubated for 1 hour at room temperature. Subsequently the stain was decanted and plates were washed 4 times with de-mineralized water. Plates were air-dried for 2 hours. The stain was dissolved by adding 100 μL buffer (0.1 M Tris pH 7.5, 0.2% SDS, 20% ethanol) per well and shaking the plates. Absorbance at 590 nm was measured using a SpectraMax® 250 plate reader (Molecular Devices). Antiproliferative/growth inhibition IC50s were calculated from concentration-response curves using GraphPad Prism software.
# [2] = system: Oxygen consumption (mitochondrial function); test: Oxygen consumption assay (MitoXpress probe); format: cell-based; conditions: MitoXpress probe signal, kinetic analysis at 37° C. for 5 hours, compared to untreated cells
# Source text: Oxygen consumption is one of the most informative and direct measures of mitochondrial function and can be measured, for example, by using the MitoXpress® assay (Luxcel MX-2001, Luxcel Biosciences). The MitoXpress® probe is one of a family of phosphorescent oxygen sensitive probes. The assay exploits the ability of oxygen to quench the excited state of the MitoXpress® probe. As the test material respires (i.e. the cells), oxygen is depleted in the surrounding solution/environment, which increases the probe phosphorescence signal. Changes in oxygen consumption reflecting changes in mitochondrial activity are seen as changes in the MitoXpress® probe signal over time.
# Cells were seeded in 96 well black plates with transparent bottoms (Greiner Bio-One cat. no. 655090) at a density of 50′000 cells/well in a final volume of 100 μL. After 24 hours the incubation media was removed and 150 μL of fresh media containing inhibitors at different concentrations was added to each well. Then, 10 μL of MitoXpress® and 150 μL mineral oil were added per well. Reading from the top of the plate, kinetic analysis was performed at 37° C. for 5 hours using a Synergy 4 plate reader (BioTek) and Time-resolved Fluoresence (TRF) wavelengths of 380/11 nm excitation and 650/20 nm emission or 665/40 emission (30 microsecond delay time, 100 microsecond integration time, gain or sensitivity settings set at either medium or high). IC50s were calculated as the concentration that inhibits 50% of the phosphorescent oxygen sensitive probe signal (MitoXpress®) as compared to untreated cells.
SMILES,"IC50 ([1]; Homo sapiens, HeLa, 72 h) [nM]",IC50 [1] [nM],IC50 [2] [nM],IC50 ([2]; 5 h) [nM]
"Cc1nsc(NC(=O)N2CCC(Cc3ccc(F)cc3)CC2)n1 [Example 1, 1-Piperidinecarboxamide, 4-[(4-fluorophenyl)methyl]-N-(3-methyl-1,2,4-thiadiazol-5-yl)-]",161,,,193
Cc1nsc(NC(=O)N2CCC(Cc3ccc(Cl)cc3)CC2)n1 [Example 2],41,,,< 100
"Cc1nsc(NC(=O)N2CCC(Cc3ccc(N)cc3)CC2)n1 [Example 4, 4-[(4-aminophenyl)methyl]-N-(3-methyl-1,2,4-thiadiazol-5-yl)piperidine-1-carboxamide]",460,,,400
COCc1ccc(CC2CCN(C(=O)Nc3nc(C)ns3)CC2)cc1 [Example 6],31,,,200
Cc1nsc(NC(=O)N2CCC(Cc3ccc(Cl)cc3Cl)CC2)n1 [Example 8],32,,,200
Cc1nsc(NC(=O)N2CCC(Cc3ccc(Cl)cc3F)CC2)n1 [Example 9],36,,,< 100
Cc1nsc(NC(=O)N2CCC(Cc3ccc(C(F)(F)F)cc3)CC2)n1 [Example 10],36,,,200
Cc1nsc(NC(=O)N2CCC(Cc3ccc(C(C)(C)C)cc3)CC2)n1 [Example 11],193,,,1300
"COc1ccc(CC2CCN(C(=O)Nc3nc(C)ns3)CC2)c(C)c1 [Example 13, 4-[(4-methoxy-2-methyl-phenyl)methyl]-N-(3-methyl-1,2,4-thiadiazol-5-yl)piperidine-1-carboxamide]",307,,,345
Cc1nsc(NC(=O)N2CCC(Cc3ccc(Cl)cc3C)CC2)n1 [Example 14],146,,,200
Cc1ccc(CC2CCN(C(=O)Nc3nc(C)ns3)CC2)nc1 [Example 15],267,,,412
Cc1nsc(NC(=O)N2CCC(Oc3ccc(Cl)cc3Cl)CC2)n1 [Example 20],122,,,369
"Cc1nsc(NC(=O)N2CCC(Cc3c(F)cc(Cl)cc3F)CC2)n1 [Example 25, 4-[(4-chloro-2,6-difluoro-phenyl)methyl]-N-(3-methyl-1,2,4-thiadiazol-5-yl)piperidine-1-carboxamide]",18,,,55
"Cc1nsc(NC(=O)N2CCC(Cc3ccc(C)c(C)c3)CC2)n1 [Example 28, 4-[(3,4-dimethylphenyl)methyl]-N-(3-methyl-1,2,4-thiadiazol-5-yl)piperidine-1-carboxamide]",249,,,334
Cc1nsc(NC(=O)N2CCC(Cc3ccc(C#N)cc3F)CC2)n1 [Example 32],43,,,116
"NCc1cc(NC(=O)N2CCC(=Cc3c(F)cc(Cl)cc3F)CC2)ccn1 [Example 180, N-[2-(aminomethyl)-4-pyridyl]-4-[(4-chloro-2,6-difluoro-phenyl)methylene]piperidine-1-carboxamide]",330,,,

# Further lines, with some results ahead:
"IC50 ([1]; Homo sapiens, HeLa, 72 h) [nM]",IC50 [1] [nM],SMILES,IC50 [2] [nM],IC50 ([2]; 5 h) [nM]
47,,"Cc1nsc(NC(=O)N2CCC(Cc3ccc(Cl)cc3F)C(C)C2)n1 (single isomer, unassigned) [Example 84a, 4-[(4-chloro-2-fluoro-phenyl)methyl]-3-methyl-N-(3-methyl-1,2,4-thiadiazol-5-yl)piperidine-1-carboxamide]",57,
,75,"Cc1nsc(NC(=O)N2CCC(Cc3ccc(Cl)cc3F)C(C)C2)n1 (single isomer, unassigned) [Example 84b, 4-[(4-chloro-2-fluoro-phenyl)methyl]-3-methyl-N-(3-methyl-1,2,4-thiadiazol-5-yl)piperidine-1-carboxamide]",121,
80,,COc1ccc(CC2CCN(C(=O)Nc3nc(C)ns3)CC2)cc1 [Example 3],,< 100
36,,Cc1ccc(CC2CCN(C(=O)Nc3nc(C)ns3)CC2)cc1 [Example 5],,100
142,,"Cc1ccc(SC2CCN(C(=O)Nc3nc(C)ns3)CC2)cc1 [Example 7, N-(3-methyl-1,2,4-thiadiazol-5-yl)-4-(p-tolylsulfanyl)piperidine-1-carboxamide]",,500
19,,Cc1ccc(CC2CCN(C(=O)Nc3nc(C)ns3)CC2)c(C)c1 [Example 12],,500
260,,Cc1nsc(NC(=O)N2CCC(Cc3ccc(C(C)C)cc3)CC2)n1 [Example 16],,326
162,,CCc1ccc(CC2CCN(C(=O)Nc3nc(C)ns3)CC2)cc1 [Example 17],,243
637,,Cc1ccc(OC2CCN(C(=O)Nc3nc(C)ns3)CC2)cc1 [Example 18],,515
266,,"Cc1nsc(NC(=O)N2CCC(Oc3ccc(Cl)cc3)CC2)n1 [Example 19, 4-(4-chlorophenoxy)-N-(3-methyl-1,2,4-thiadiazol-5-yl)piperidine-1-carboxamide]",,488
207,,Cc1nsc(NC(=O)N2CCC(=Cc3ccc(Cl)cc3Cl)CC2)n1 [Example 21],,208
138,,Cc1nsc(NC(=O)N2CCC(Cc3ccc(Cl)cc3N)CC2)n1 [Example 24],,307
15,,"Cc1nsc(NC(=O)N2CCC(=Cc3c(F)cc(Cl)cc3F)CC2)n1 [Example 26, 4-[(4-chloro-2,6-difluoro-phenyl)methylene]-N-(3-methyl-1,2,4-thiadiazol-5-yl)piperidine-1-carboxamide]",,23
59,,"Cc1ccc(CC2CCN(C(=O)Nc3nc(C)ns3)CC2)c(F)c1 [Example 27, 4-[(2-fluoro-4-methyl-phenyl)methyl]-N-(3-methyl-1,2,4-thiadiazol-5-yl)piperidine-1-carboxamide]",,83
256,,Cc1nsc(NC(=O)N2CCC(Cc3ccc(C)c(F)c3)CC2)n1 [Example 29],,205
59,,COc1ccc(CC2CCN(C(=O)Nc3nc(C)ns3)CC2)c(F)c1 [Example 30],,178
70,,Cc1nsc(NC(=O)N2CCC(Cc3ccc(C(F)(F)F)cc3F)CC2)n1 [Example 33],,102
240,,"Cc1nsc(NC(=O)N2CCC(Cc3ccc(-c4noc(C)n4)cc3F)CC2)n1 [Example 35, 4-[[2-fluoro-4-(5-methyl-1,2,4-oxadiazol-3-yl)phenyl]methyl]-N-(3-methyl-1,2,4-thiadiazol-5-yl)piperidine-1-carboxamide]",,473
61,,Cc1nsc(NC(=O)N2CCC(=Cc3ccc(C(F)(F)F)cc3F)CC2)n1 [Example 38],,131
38,,"Cc1nsc(NC(=O)N2CCC(=Cc3ccc(Cl)cc3F)CC2)n1 [Example 39, 4-[(4-chloro-2-fluoro-phenyl)methylene]-N-(3-methyl-1,2,4-thiadiazol-5-yl)piperidine-1-carboxamide]",,69
32,,"Cc1nsc(NC(=O)N2CCC(Cc3c(F)cc(C(F)(F)F)cc3F)CC2)n1 [Example 40, 4-[[2,6-difluoro-4-(trifluoromethyl)phenyl]methyl]-N-(3-methyl-1,2,4-thiadiazol-5-yl)piperidine-1-carboxamide]",,48
96,,"O=C(Nc1ccnc(CO)c1)N1CCC(=Cc2ccc(Cl)cc2F)CC1 [Example 177, 4-[(4-chloro-2-fluoro-phenyl)methylene]-N-[2-(hydroxymethyl)-4-pyridyl]piperidine-1-carboxamide]",,
155,,"N#CCc1cc(NC(=O)N2CCC(=Cc3ccc(Cl)cc3F)CC2)ccn1 [Example 178, 4-[(4-chloro-2-fluoro-phenyl)methylene]-N-[2-(cyanomethyl)-4-pyridyl]piperidine-1-carboxamide]",,
